Here are results for 1 molecule from patent US6777387B2, “Terminally-branched polymeric linkers containing extension moieties and polymeric conjugates containing the same” (Enzon Pharmaceuticals, Inc., priority 2000, dated 2004).

Test [1] deals with human non-small cell lung carcinoma (LX-1). The test can be described thus: Efficacy against subcutaneous LX-1 xenograft in nude mice. The class given is in vivo. To be noted: i.v.; for T/C(%) at Day 14: median tumor volume treated vs control when control ~1000 mm^3; for T/C (%) at Day 21: median tumor volume treated vs control when control ~2000 mm^3. On the procedure:
^13C NMR spectra were obtained at 67.80 MHz on the JNM GSX-270 or 75.46 MHz on the Varian MercuryVX-300. Chemical shifts (δ) are reported in parts per million (ppm) downfield from tetramethylsilane (TMS) and coupling constants (J values) are given in hertz (Hz). All PEG conjugated compounds were dissolved (˜15 mg/mL) in sterile saline (0.9%) for injection prior to in vivo drug treatments and were given as their ara-C equivalents (absolute amount of ara-C given).
Athymic nude mice were implanted subcutaneous with a 4-5 mm^3 tissue fragment of LX-1 collected from donor mice. The tumor trocar site was observed twice weekly and measured once palpable. The tumor volume for each mouse was determined by measuring two dimensions with calipers and calculated using the formula: tumor volume=(length×width^2)/2. […] The mice were sorted to evenly distribute tumor size, grouped into 4 to 6 mice/group, and ear punched for permanent identification. Drugs were administered intravenously q3d×4 (Day 1, 4, 7 and 10) via the tail vein at an approximate rate of 0.5 mL per minute. Compounds were given both at an equal molar basis (absolute amount of active) of 20 mg/kg and at close their respective MTD (Ara-C, 100 mg/kg/dose (toxicity); PEG-AraC, 40 to 60 mg/kg/dose (volume). Mouse weight and tumor size were measured at the beginning of study and twice weekly through week 4. Drug effectiveness was determined by comparing tumor growth in treated versus untreated (no vehicle) control mice. Five types of endpoints were used as the basis for comparison: (a) mean tumor volumes at Day 28; (b) mean percent change in individual tumor volumes from initial; (c) percent difference in tumor volume (%T/C), measured when the control group's median tumor volume reached approximately 800-1100 mm^3 (exponential growth phase); (d) percent difference in tumor volume (%T/C) at Day 21 (˜2000 mm^3) and (e) the number of tumor regression (smaller tumor volume at Day 21 (˜2000 mm^3) and (e) the number of tumor regression (smaller tumor volume on Day 28 compared to Day 1) per group.

Test [2] concerns P388/0. The test can be described thus: Cytotoxicity assay, P388/0 cells (Alamar Blue). To be noted: 37° C., 3 days incubation, duplicate, SD ±10%. The class given is cell-based. The method, then:
Cell Lines and Cytotoxicity Assays. Studies using P388/0 cell lines for IC50 (drug concentration inhibiting growth of cells by 50%) were maintained and conducted as previously reported. Briefly, for IC50 determination, cells were seeded into the microwell plates at a density […] per 50 μL per well. Plates were incubated at 37° C. in a humidified incubator with 5% CO2 for 3 days. Cell growth was measured by the addition of 10 μL/well of Alamar Blue (Alamar Biosciences, Inc., Sacramento, Calif.) and the plates were incubated a further 4 hours at 37° C. The IC50 values for each compound were determined from absorbance versus dilution factor plots. […] All cell lines were periodically tested for Mycoplasma and were Mycoplasma free.
Background: Alamar Blue is a resazurin reagent that responds to reducing activity.

The term IC50 denotes the concentration at which inhibition is half-maximal. A lower IC50 goes with higher potency. For `Nc1ccn([C@@H]2O[C@H](CO)[C@@H](O)[C@@H]2O)c(=O)n1` [Ara-C, ara-C], in test [1] (total dose 80 mg/kg), the “Complete Regression (#/Grp)” value was 0/4, the “Regression at Day 28 (#/Grp)” value was 0/4, the “T/C(%) at Day 14” value is recorded as 51.1% and the “T/C (%) at Day 21” value was found to be 52.2%. In test [1] (total dose 400 mg/kg), the “Complete Regression (#/Grp)” value is given as 0/6, the “Regression at Day 28 (#/Grp)” value is 1/6, the “T/C(%) at Day 14” value was 16.7% and the “T/C (%) at Day 21” value turned out to be 33.4%. The molecule further returned a concentration for half-maximal inhibition (IC50) in test [2] of 10 nM.
